15 compounds from patent publication US11306081B2, “Phenylacetamides as inhibitors of rock” (BRISTOL-MYERS SQUIBB COMPANY, priority 2017, dated 2022) can be followed below.

One may read the IC50 as the point on the concentration scale where inhibition reaches its midpoint.

Sequence of ROCK2 (O75116 whole entry, species assumed): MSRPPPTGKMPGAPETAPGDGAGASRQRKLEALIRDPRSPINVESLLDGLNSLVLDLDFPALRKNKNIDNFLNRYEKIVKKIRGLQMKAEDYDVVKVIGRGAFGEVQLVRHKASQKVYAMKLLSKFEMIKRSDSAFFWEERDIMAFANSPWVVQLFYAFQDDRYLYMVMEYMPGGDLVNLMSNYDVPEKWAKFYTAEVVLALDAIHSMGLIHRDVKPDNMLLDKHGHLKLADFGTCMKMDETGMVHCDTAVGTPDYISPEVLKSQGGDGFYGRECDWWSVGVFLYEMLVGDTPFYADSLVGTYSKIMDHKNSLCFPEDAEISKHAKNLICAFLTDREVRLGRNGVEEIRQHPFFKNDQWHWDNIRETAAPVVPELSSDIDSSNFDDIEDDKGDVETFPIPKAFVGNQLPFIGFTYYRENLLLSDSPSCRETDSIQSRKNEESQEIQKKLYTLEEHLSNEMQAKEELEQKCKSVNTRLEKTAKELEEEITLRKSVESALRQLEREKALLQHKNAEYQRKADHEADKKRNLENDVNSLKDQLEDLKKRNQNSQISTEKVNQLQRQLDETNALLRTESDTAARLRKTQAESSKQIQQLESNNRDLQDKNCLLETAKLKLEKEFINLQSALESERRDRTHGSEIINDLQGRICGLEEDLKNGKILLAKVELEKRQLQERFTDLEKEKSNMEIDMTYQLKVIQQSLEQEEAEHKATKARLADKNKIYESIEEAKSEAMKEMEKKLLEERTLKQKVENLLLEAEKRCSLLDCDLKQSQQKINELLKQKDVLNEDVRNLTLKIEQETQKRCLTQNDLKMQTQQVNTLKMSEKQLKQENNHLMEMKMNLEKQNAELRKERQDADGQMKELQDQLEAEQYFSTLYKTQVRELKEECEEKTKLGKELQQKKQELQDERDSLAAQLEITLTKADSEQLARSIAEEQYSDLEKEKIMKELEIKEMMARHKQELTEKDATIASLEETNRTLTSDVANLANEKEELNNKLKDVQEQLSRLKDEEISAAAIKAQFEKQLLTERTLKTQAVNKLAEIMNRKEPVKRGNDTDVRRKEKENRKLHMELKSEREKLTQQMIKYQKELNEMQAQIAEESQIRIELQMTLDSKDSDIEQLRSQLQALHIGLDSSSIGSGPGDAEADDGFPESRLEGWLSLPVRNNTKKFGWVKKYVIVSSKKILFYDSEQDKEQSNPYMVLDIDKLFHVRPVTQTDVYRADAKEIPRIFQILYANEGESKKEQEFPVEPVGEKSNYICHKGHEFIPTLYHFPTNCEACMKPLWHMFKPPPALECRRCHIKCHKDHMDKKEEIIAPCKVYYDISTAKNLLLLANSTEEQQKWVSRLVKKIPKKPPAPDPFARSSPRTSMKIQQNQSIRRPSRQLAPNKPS

The test concerns the target ROCK2 (Homo sapiens (Human), UniProt O75116). The experiment in a line: ROCK assay (LABCHIP 3000 peptide phosphorylation assay). The class given is biochemical. Conditions: 5 μM ATP, 1.5 μM peptide substrate, dose-response. Here is the method:
The effectiveness of compounds of the present invention as ROCK inhibitors can be determined in a 30 μL assay containing 20 mM HEPES, pH 7.5, 20 mM MgCl2, 0.015% Brij-35, 4 mM DTT, 5 μM ATP and 1.5 μM peptide substrate (FITC-AHA-AKRRRLSSLRA-OH) (SEQ ID No. 1). Compounds were dissolved in DMSO so that the final concentration of DMSO was <2%, and the reaction was initiated with Rho kinase variants. After incubation, the reaction was terminated by the addition of EDTA and the phosphorylated and non-phosphorylated peptides separated using a LABCHIP® 3000 Reader (Caliper Life Sciences). […] Compounds were tested in dose-response format, and the inhibition of kinase activity was calculated at each concentration of compound. The inhibition data were fit using a curve-fitting program to determine the IC50; i.e., the concentration of compound required to inhibit 50% of kinase activity.
For the compound `COc1cc(C#N)c2c(c1)CCN2C(=O)Cc1ccc(Oc2ncccc2C(N)=O)cc1` [Example 056, 2-(4-(2-(7-cyano-5-methoxyindolin-1-yl)-2-oxoethyl)phenoxy) nicotinamide], the IC50 came to 1090 nM. This counts as single-digit micromolar.

Compound `NC(=O)c1cccnc1Oc1ccc(CC(=O)Nc2nc(-c3ccc4c(c3)OCCO4)cs2)cc1` [Example 057, 2-(4-(2-((4-(2,3-dihydrobenzo[b][1, 4]dioxin-6-yl)thiazol-2-yl)amino)-2-oxoethyl)phenoxy) nicotinamide] registered an IC50 of 186 nM.

Compound `NC(=O)c1cccnc1Oc1ccc(CC(=O)Nc2nnc(-c3ccccc3)s2)cc1` [Example 058, 2-(4-(2-oxo-2-((5-phenyl-1,3,4-thiadiazol-2-yl)amino)ethyl)phe-noxy)nicotinamide] returned an IC50 of 419 nM. Compared with the last compound, the IC50 is about 2.3-fold higher.

With `NC(=O)c1cccnc1Oc1ccc(CC(=O)N2CCc3cc(OCc4ccccc4)ccc32)cc1` [Example 059, 2-(4-(2-(5-(benzyloxy)indolin-1-yl)-2-oxoethyl)phenoxy) nicotinamide], half-maximal inhibition (IC50) required 98 nM.

In turn, `NC(=O)c1cccnc1Oc1ccc(CC(=O)Nc2nc(-c3cccc4oc(=O)ccc34)cs2)cc1` [Example 061, 2-(4-(2-oxo-2-((4-(2-oxo-2H-chromen-5-yl)thiazol-2-yl)amino)ethyl)phe-noxy)nicotinamide] came in with a half-inhibitory concentration (IC50) of 506 nM.

`NC(=O)c1cccnc1Oc1ccc(CC(=O)Nc2nc(-c3cccc(OC(F)(F)F)c3)cs2)cc1` [Example 062] gave an IC50 of 863 nM.

For the compound `N#Cc1cccc(-c2csc(NC(=O)Cc3ccc(Oc4ncccc4C(N)=O)cc3)n2)c1` [Example 063, 2-(4-(2-((4-(3-cyanophenyl)thia-zol-2-yl)amino)-2-oxoethyl)phenoxy) nicotinamide], the IC50 stood at 339 nM.

For `NC(=O)c1cccnc1Oc1ccc(CC(=O)Nc2nc(-c3cccc(F)c3)cs2)cc1` [Example 064, 2-(4-(2-((4-(3-fluorophenyl)thia-zol-2-yl)amino)-2-oxoethyl)phenoxy) nicotinamide], it took 423 nM to reach half-maximal inhibition (IC50).

As for `COC(=O)c1ccc2sc(NC(=O)Cc3ccc(Oc4ncccc4C(N)=O)cc3)nc2c1` [Example 065, methyl 2-(2-(4-((3-carbamoylpyridin-2-yl)oxy)phenyl)acet-amido)benzo[d]thi-azole-5-carboxylate], the concentration for half-maximal inhibition (IC50) was 109 nM.

The compound `NC(=O)c1ccc2nc(NC(=O)Cc3ccc(Oc4ncccc4C(N)=O)cc3)sc2c1` [Example 066, 2-(2-(4-((3-carbamoylpyridin-2-yl)oxy)phenyl)acet-amido)benzo[d]thi-azole-6-carboxamide] had a half-inhibitory concentration (IC50) of 830 nM. This IC50 is about 7.6-fold higher than that of the compound before.

Compound `COc1ccc2nc(NC(=O)Cc3ccc(Oc4ncccc4C(N)=O)cc3)sc2c1` [Example 067, 2-(4-(2-((6-methoxybenzo[d]thiazol-2-yl)amino)-2-oxoethyl)phenoxy) nicotinamide] returned a 50% inhibitory concentration (IC50) of 89 nM.

The compound `Cc1ccc2[nH]c(NC(=O)Cc3ccc(Oc4ncccc4C(N)=O)cc3)nc2c1` [Example 068, 2-(4-(2-((5-methyl-1H-benzo[d]imidazol-2-yl)amino)-2-oxoethyl)phenoxy) nicotinamide] yielded an IC50 of 600 nM.

Consider `CCCS(=O)(=O)c1ccc2[nH]c(NC(=O)Cc3ccc(Oc4ncccc4C(N)=O)cc3)nc2c1` [Example 069, 2-(4-(2-oxo-2-((5-(propylsulfonyl)-1H-benzo[d]imidazol-2-yl)amino)ethyl)phe-noxy)nicotinamide], for which the IC50 is 558 nM. This IC50 and that of the compound before are within 1.5-fold of each other.

In turn, `COC(=O)c1ccc2nc(NC(=O)Cc3ccc(Oc4ncccc4C(N)=O)cc3)sc2c1` [Example 070, methyl 2-(2-(4-((3-carbamoylpyridin-2-yl)oxy)phenyl)acet-amido)benzo[d]thi-azole-6-carboxylate] showed an IC50 of 57 nM.

The compound `N#Cc1ccc2[nH]c(NC(=O)Cc3ccc(Oc4ncccc4C(N)=O)cc3)nc2c1` [Example 071, 2-(4-(2-((5-cyano-1H-benzo[d]imidazol-2-yl)amino)-2-oxoethyl)phenoxy) nicotinamide] showed an IC50 of 621 nM. Compared with the last compound, the IC50 is about 11-fold higher.
